Consider four compounds from patent US20110033930A1, “METHOD FOR OBTAINING NGN3-EXPRESSING CELLS AND INSULIN PRODUCING-BETA CELLS” (priority 2008, published 2011).

Read-outs that look alike come from different tables or passages of the source.

Series [1] relates to E13.5 rat pancreatic explants. As to the kind of experiment: Real-time PCR of lineage markers in cultured pancreatic explants with HDACi. In kind it is cell-based. The settings on record: for endocrine β/δ lineage: MS275 1 μM, NaB 125 μM; for Arx expression enhanced / Ngn3 expression peak, higher than in controls / increase in PP expression / increase in glucagon expression: day7; for SPP1 expression: especially after 5 and 7 days of culture; for Ngn3 expression profile: from day1; for Pax4 expression: over 7 days of culture; for increase in levels of Mist1 / increase in levels of P48 / increase in levels of amylase: vs control. On the technique in general: Quantitative PCR measures a nucleic acid by following its amplification.
Description: The first day post-coitum was taken as embryonic day 0.5 (E0.5). Pregnant female rats at 13.5 days of gestation were killed by CO2asphyxiation, according to the French Animal Care Committee's guidelines. Dorsal pancreatic buds from E13.5 rat embryos were dissected as described previously (2).
(§2) Organ culture, HDACi treatments, BrdU incorporation: Pancreases were laid on 0.45 μm filters (Millipore) at the air-medium interface in Petri dishes, containing RPMI 1640
RNA extraction and real-time PCR: Total RNA was extracted from pools of at least three pancreases using RNeasy Microkit (Qiagen) and reverse transcribed using Superscript reagents (Invitrogen). Real-time PCR was performed with the 7300 Fast real-time PCR System; each reaction consisted of a mix of Taqman® universal PCR master mix with a specific labelled probe (Applied Biosystem) (21). The comparative method of relative quantification (2^−ΔΔct) (38) was used to calculate expression levels of each target gene, normalized to peptidylpropyl isomerase A (ppia/cyclophilin A). The data are presented as fold changes in gene expression. At least three pools of explants were analyzed per condition and results are expressed as means±SEM. Statistical significance was determined using Student's t test.

Series [2] concerns E13.5 rat pancreatic explants. As to the kind of experiment: TUNEL labelling of apoptotic amylase or insulin cells. In kind it is cell-based. Here is the method: TUNEL labelling: Terminal deoxynucleotidyltransferase-mediated dUTP-biotin nick end labeling (TUNEL) experiments were performed using an in situ cell death detection kit (Roche) and followed by insulin and amylase immunostaining.
The effects of HDACi treatment on pancreatic differentiation are independent of proliferation and apoptosis: The observed effects of HDACi on pancreatic development could be attributed to a direct effect of HDAC inhibition on the differentiation program itself or to an indirect effect on proliferation/apoptosis. First, the inventors asked whether the massive increase in the number of NGN3+ cells was accompanied by an increased proliferation of early PDX1+ pancreatic precursor cells that would give rise to more NGN3+ endocrine progenitor cells (20). Thus, they cultured pancreases for 1 day with or without VPA and TSA and added BrdU to the medium during the last hour of culture. No difference in BrdU incorporation was seen. The percentage of PDX1+/BrdU+ was 30.4±1.4% in control conditions, 29.3±2.3% with VPA and 31.9±1.4% in TSA-treated pancreases. They next determined whether the greater number of NGN3+ cells was associated with increased proliferation of such cells. […] Given the observed increase in glucagon-expressing cells with HDACi treatment, the inventors also tested for increased proliferation of such cells. […]

Series [3] relates to E13.5 rat pancreatic explants. As to the kind of experiment: In situ hybridization of Ngn3 transcripts in cultured pancreatic explants. The format is cell-based. The settings on record: day5. Here is the method:
In situ hybridization: In situ hybridization was performed as previously described (15) and colorimetric development was performed with 5-bromo-4-chloro-3-indolyl phosphate (Promega) and nitroblue tetrazolium (Roche). No signal was obtained when a sense riboprobe was used.

The subject of series [4] is E13.5 rat pancreatic explants. As to the kind of experiment: Morphology of pancreases cultured with HDACi. In kind it is cell-based. The following applies: for morphology of cultured pancreas (branching, cystic structures, acinar structures): after 7 days of culture.
Description: as §2
HDACi treatment suppresses acinar differentiation and promotes ductal differentiation: The inventors first compared the morphology of pancreases cultured in the presence or absence of HDACi.
The subject of series [5] is E13.5 rat pancreatic explants. As to the kind of experiment: Dose finding of HDACi in organ culture (cell death). The settings on record: TSA tested from 50 nM to 200 nM; data not shown. Here is the method:
(§1) (Invitrogen) supplemented with penicillin (100 U/mL), streptomycin (100 μg/mL), HEPES (10 mmol/L), L-glutamine (2mmol/L), non-essential amino acids (1x, Invitrogen) and 10% heat-inactivated calf serum (HyClone). Cultures were maintained at 37° C. in humidified 95% air/5% CO2. Medium was changed every other day. Explants were cultured in the presence of VPA or TSA (Sigma). We determined the optimal concentration of both inhibitors by testing increasing doses of VPA (from 0.75 mM to 3 mM) and TSA (from 50 nM to 200 nM). […] MS275 and NaB (Sigma) were used at 1 μM and 125 μM, respectively. For cell proliferation assay, 10 μM BrdU (Sigma) was added to the medium during the last hour of culture.

Series [6] relates to E13.5 rat pancreatic explants. Briefly: BrdU incorporation cell proliferation assay in pancreatic explants. The format is cell-based. The settings on record: for proliferative rate for glucagon+ cells: 5-day treatment, vs controls; for percentage of PDX1+/BrdU+: 1 day of culture, BrdU during last hour, control 30.4±1.4%; for proliferation of NGN3+ cells: after 3 days of culture. Here is the method: as §1
Immunohistochemistry and quantification: Tissues were fixed in 10% formalin, pre-embedded in low gelling agarose and embedded in paraffin. All sections (4 μm thick) of each pancreatic explant were collected and processed for immunohistochemistry, as described previously (14, 46). Antibodies were used at the following dilutions: mouse anti-insulin (Sigma, 1/2000), guinea pig anti-insulin (DAKO, 1/200), mouse anti-glucagon (Sigma, 1/2000), rabbit anti-amylase (Sigma, 1/300), goat anti-osteopontin/SPP1 (R&D systems, 1/200), rabbit anti-PDXI ((14), 1/1000), mouse anti-BrdU (Amersham, ½), rabbit anti-Ngn3 ((21), 1/1000). The fluorescent secondary antibodies were: fluorescein anti-rabbit and anti-goat antibodies (Jackson Immunoresearch, 1/200), Texas-red anti-mouse antibody (Jackson Immunoresearch, 1/200) Alexa fluor 488 anti-rabbit antibody (Biogenex, 1/400) and AMCA anti-guinea pig antibody (Jackson Immunoresearch, 1/200). Nuclei were stained blue with Hoechst 33342 (0.3 μg/ml, Invitrogen). Ngn3 detection was perfointed as previously described (21) using the Vectastain elite ABC kit (Vector Laboratories). Photographs were taken using a fluorescence microscope (Leitz DMRB, Leica) and digitized using cooled 3CCD cameras (C5810 or C7780, Hamamatsu). The surface area of each staining was quantified with IPLab (Scanalytics). The surface areas per section were summed to obtain the total surface area per explant in mm2. At least three explants were analyzed per condition and results are expressed as means±SEM. Statistical significance was determined using Student's t test.
Thus, they cultured pancreases for 1 day with or without VPA and TSA and added BrdU to the medium during the last hour of culture.

Series [7] has as its system Total cellular HDAC enzyme activity. Briefly: HDAC enzyme activity assay (total cellular HDAC activity of treated explant extracts). The following applies: extracts of cultured rat pancreatic explants treated with 1 mM VPA or 100 nM TSA. The format is biochemical. Here is the method: HDAC enzyme activity assay: Total cellular HDAC enzyme activity was measured using an HDAC assay kit (Millipore). Briefly, 2 μg of control or VPA- or TSA-treated cell extracts (prepared as described above) were incubated in a 96-well plate with a fluorometric substrate in HDAC assay buffer for 45 min at 37° C. An activator solution was then added to release the fluorophore from the deacetylated substrates, and fluorescence was measured in a plate-reading fluorimeter (excitation=390 nm, emission detection=460 nm).
To study the role of HDACs in pancreas development, the inventors treated rat pancreatic explants with VPA and TSA. They cultured E13.5 rat pancreases on floating filters at the air-medium interface for 14 days. Under such conditions, acinar and endocrine cells develop in a way that replicates pancreas development in vivo (2, 21). […] They next measured total HDAC activity from day 0 to day 14 and found a 65.4%±1.6% decrease between the two stages.

Series [8] deals with class I and class II HDACs. The settings on record: background, refs 17 and Yoshida et al., 1990; cited from earlier work.
Series [9] has as its system E13.5 rat pancreatic explants. As to the kind of experiment: Immunohistochemistry and surface-area quantification of cultured pancreatic explants. The format is cell-based. The following applies: for NGN3+ cells: immunohistochemical analysis, day7; for increase in the number of glucagon-expressing cells: immunohistological analysis; for number of insulin+ cells: immunohistology, days 5 and 7; for acinar cell development (surface area occupied by amylase+ cells): vs control.
Description: Dorsal pancreatic buds from E13.5 rat embryos were dissected as described previously (2).
as §2

Where [10] appears, read: real-time PCR, 7 days of culture.

On to `Nc1ccccc1NC(=O)c1ccc(CNC(=O)OCc2cccnc2)cc1` [MS275], for which, in series [1], the “endocrine β/δ lineage” value is “results similar to those with VPA”.

For the compound `CC(/C=C/C(=O)NO)=C\[C@@H](C)C(=O)c1ccc(N(C)C)cc1` [TSA, trichostatin A], the “number of apoptotic cells expressing amylase or insulin” value in series [2] (TUNEL method) is given as “neither VPA nor TSA treatments modified the number of apoptotic cells”. Moreover, in [3], the “Ngn3 mRNA expression by in situ hybridization” value is listed as “enhanced Ngn3 expression”. The “morphology of cultured pancreas (branching, cystic structures, acinar structures)” value in series [4] was “the tips of the branched epithelium formed cystic structures”. In series [4] (after 11 days of culture), the “morphology: translucent buds at the periphery of the pancreas” value is recorded as “developed translucent buds”. Also, in [5], the “concentrations that result in increased cell death” value is listed as “above 125 nM”. The somatostatin expression result in [1] (after 14 days in culture, data not shown) is “increased”. Further, in [1] (real-time PCR), the NeuroD1 expression result is “strongly activated”; the Arx expression enhanced is listed as about 11 fold; the “Ngn3 expression peak, higher than in controls” value is 14 fold; the “increase in PP expression” value stood at 6 fold. In series [1] (real-time PCR), the “increase in glucagon expression” value amounted to 25 fold, the SPP1 expression entry is “major increase”, the Ngn3 expression profile entry is recorded as “dramatic increase” and the Pax4 expression result is “strongly activated”. Moreover, in series [1] (real-time PCR), the “increase in levels of Mist1” value is “strongly reduced”, the “increase in levels of P48” value was “strongly reduced” and the “increase in levels of amylase” value was “strongly reduced”. Also, in series [1] (setting [10]), the insulin expression entry is “no differences” and the somatostatin expression entry is given as “no differences”. Moreover, in series [1] (real-time PCR, day9), the “insulin expression increased compared with controls” value (shortened to “insulin expression increased”) was determined as 2 fold. Further, the “insulin expression increased” value in series [1] (real-time PCR, day11) was 3 fold. The “insulin expression increased” value in [1] (real-time PCR, day14) amounted to 5 fold. Besides, in series [6], the “proliferative rate for glucagon+ cells” value is recorded as “no difference”, the “percentage of PDX1+/BrdU+” value amounted to 31.9±1.4% and the “proliferation of NGN3+ cells” value is reported as “neither VPA nor TSA increased the proliferation”. Besides, in [7], the “decrease in HDAC activity” value was 99.2%±0.9%. The HDAC class selectivity entry in series [8] was “inhibits both class I and class II HDACs”. Besides, in series [9], the “NGN3+ cells” value was “many were present”, the “increase in the number of glucagon-expressing cells” value was determined as 4 fold, the “number of insulin+ cells” value is given as “no differences” and the “acinar cell development (surface area occupied by amylase+ cells)” value is reported as “much lower”.

Consider `CCCC(CCC)C(=O)O` [VPA, valproic acid], for which the “number of apoptotic cells expressing amylase or insulin” value in [2] is given as “neither VPA nor TSA treatments modified the number of apoptotic cells”. In addition, in series [3], the “Ngn3 mRNA expression by in situ hybridization” value is “enhanced Ngn3 expression”. In series [4], the “morphology of cultured pancreas (branching, cystic structures, acinar structures)” value is “the tips of the branched epithelium formed cystic structures”. For the same compound, in [1] (real-time PCR), the NeuroD1 expression entry is recorded as “significantly lower”; the Arx expression enhanced entry is “around 3 fold”; the “Ngn3 expression peak, higher than in controls” value came out at 14 fold; the “increase in PP expression” value was determined as 4 fold. In [1] (real-time PCR), the “increase in glucagon expression” value was 5 fold, the SPP1 expression entry is “major increase”, the Ngn3 expression profile entry was “dramatic increase” and the Pax4 expression result is “dramatic decrease”. For the same compound, in series [1] (real-time PCR), the “increase in levels of Mist1” value is listed as “strongly reduced”, the “increase in levels of P48” value was “strongly reduced” and the “increase in levels of amylase” value is “strongly reduced”. In addition, in series [1] (setting [10]), the insulin expression result is reported as “dramatic decrease” and the somatostatin expression result is given as “almost full abolition”. In series [1] (tissues cultured for 14 days), the insulin expression result was “remained dramatically low”. Besides, in [6], the “proliferative rate for glucagon+ cells” value is listed as “no difference”, the “percentage of PDX1+/BrdU+” value is recorded as 29.3±2.3% and the “proliferation of NGN3+ cells” value is listed as “neither VPA nor TSA increased the proliferation”. In addition, the “decrease in HDAC activity” value in [7] is given as 93.2%±2.3%. In addition, in series [8], the HDAC class selectivity result is listed as “preferentially targets class I HDACs”. Besides, in series [9], the “NGN3+ cells” value is given as “many were present”, the “increase in the number of glucagon-expressing cells” value was determined as 4 fold, the “number of insulin+ cells” value was “major decrease” and the “acinar cell development (surface area occupied by amylase+ cells)” value is “much lower”. Besides, the “insulin+ cells observed immunohistochemically” value in series [9] (tissues cultured for 14 days) was “Few”.

On to `CCCC(=O)[O-].[Na+]` [NaB, sodium butyrate], for which, in series [1], the “endocrine β/δ lineage” value was “results similar to those with TSA”.
